# Columns and labels:
# [1] = system: PC12-ND6 cells; experiment: Cell viability by live-cell confocal microscopy (Nuclear-ID stain); assay type: cell-based; conditions: 5 mM NaBt, three days
# From the text: (§1) FIG. 4A-4E are images from microscopy and graphs showing NaBt dose-dependent acetylation and cellular toxicity in PC12-ND6 cells and embryonic E17.5 hippocampal neurons. (A) Confocal micrographs of PC12-ND6 cells (referred to as ND6) grown in the absence or presence of NaBt for three days and labeled with an anti-acetylated Lys antibody (AcLys; green). Scale bar represents 10 μm. […] Results are expressed as relative fluorescence intensity±S.D. (n=250 cells per NaBt concentration; * p=0.0001). (C) Effect of NaBt on PC12-ND6 cell viability. […] Mean±SEM (n=250 cells for each experimental condition; * p=0.0001). (D) Confocal micrographs of NaBt dose-dependent acetylation in E17.5 hippocampal neurons (AcLys; green). Scale bar represents 10 μm.
# (§2) Sodium butyrate increases protein acetylation in a dose-dependent manner without inducing cellular toxicity. A dose response analysis was performed to determine the optimal concentration of sodium butyrate (NaBt) for inducing maximal acetylation levels with minimal cellular toxicity. PC12-ND6 cells were treated with different concentrations of NaBt (2 mM, 5 mM, and 10 mM) for three days before assessing the degree of acetylated lysine residues by immunocytochemistry and cell viability by live-cell confocal microscopy using the Nuclear-ID™ stain.
# [2] = system: E17.5 hippocampal neurons; experiment: NaBt dose-dependent acetylation of nuclear proteins in neurons; assay type: cell-based; conditions: E17.5 hippocampal neurons at 1DIV
# From the text: as §1, §2
# [3] = system: neuronal cells; experiment: Live cell Mg2+-based ATP assay; conditions: NaBt-treated cells
# Procedure: FIG. 9A-9C are graphs and images from microscopy showing that NaBt enhances mitochondrial bioenergetics. (A) Flow cytometric analysis of Δψm; *p<0.001. (B) ATP levels in live cells using a Mg^2+-based assay; *p<0.001. (C) Electron microscopy of mitochondria in control and NaBt-treated cells; scale bar=200 nm.
# NaBt increases mitochondrial membrane potential (Δψm) and ATP levels. The MTR-based data raised the question: could NaBt also enhance mitochondrial bioenergetics? Δψm was assessed by live cell confocal microscopy and flow cytometry using the TMRM dye, which accumulates in the mitochondrial matrix in a Δψm-dependent fashion. A 1.5-fold increase in Δψm in NaBt-treated cells was observed (FIG. 9A). To test whether enhanced Δψm led to increased ATP output, ATP levels were monitored using the live cell Mg^2+-based ATP assay, which is compatible with the TMRM dye, allowing simultaneous recordings. A 1.6-fold increase in ATP levels in NaBt-treated cells was observed (FIG. 9B), in line with the MTR- and TMRM-based findings and the elongated mitochondrial morphology.
# [4] = system: PC12-ND6 cells; experiment: mtDNA replication (PicoGreen staining, quantitative PCR); assay type: cell-based; conditions: confirmed by quantitative PCR
# From the text: FIG. 11A-11D are images from microscopy and graphs showing NaBt promotes mtDNA replication via the NRF-1/Tfam axis. (A) Confocal analysis of mtDNA foci; scale bar=5 (B) Quantitative analysis of mtDNA copy number by PCR; *p<0.001. (C, D) Quantitative immunoblot analysis of NRF-1 and Tfam; *p<0.001.
# NaBt enhances mtDNA replication via the PGC1α-mediated NRF-1/Tfam axis. It was investigated whether NaBt enhanced mtDNA replication using the PicoGreen® dye to label mtDNA. PC12-ND6 cells were transfected with the mito-dsRed vector prior to NaBt treatment followed by PicoGreen® staining. […] To corroborate enhanced mitochondrial biogenesis, two key target genes of PGC1α were examined, the NRF-1 transcription factor and its direct target gene Tfam, both essential for mitochondrial biogenesis. […] The findings confirm the NaBt-mediated modulation of mitochondrial biogenesis and mtDNA replication in neuronal cells.
# [5] = system: PC12-ND6 cells; experiment: NGF (100 ng/ml)-mediated neurite outgrowth after chloramphenicol; assay type: cell-based
# From the text: FIG. 15A-15C are images from microscopy and a graph showing that Pre-treatment of PC12-ND6 cells negates the inhibitory effect of chloramphenicol on NGF-mediated neuronal differentiation. (A) Confocal micrographs of untreated and Cm-treated PC12-ND6 cells transfected with the vector mito-GFP and exposed to NGF. Scale bar represents 20 μm. (B) Confocal micrographs of NaBt pre-treated PC12-ND6 cells transfected with the vector mito-GFP and exposed to chloramphenicol prior to NGF treatment. Scale bar represents 20 μm. (C) Graph of average total neurite length. Mean±SEM (n=50 cells; compared to untreated PC12-ND6 cells *p=0.0001; compared to non-NaBt-treated PC12-ND6 cells with corresponding Cm concentration **p=0.0001).
# Based on the results that NaBt endows PC12-ND6 cells with increased mitochondrial mass through biogenesis, resulting in accelerated neuronal differentiation, it was examined whether exposure to NaBt for three days could confer protection to chloramphenicol-mediated inhibition of neuronal differentiation upon NGF signaling.
# [6] = system: MELAS fibroblasts; experiment: Morphometric analysis of mitochondrial connectivity (Image J); assay type: cell-based, human; conditions: Image J analysis of MTG-labeled fibroblasts
# Procedure: FIG. 18 is a graph showing that butyrate and its derivatives rescue the mitochondrial dynamics and connectivity in MELAS fibroblasts.
# Butyrates rescue the mitochondrial mass, morphology, networking, and membrane potential in MELAS fibroblasts. Skin fibroblasts from two MELAS patients and from a healthy subject as a control were used. Dose-dependent analyses of butyrates was performed to determine their best concentrations for eliciting an optimal mitochondrial response without cellular toxicity. Healthy and MELAS fibroblasts were treated with PBS, NaBt (2.5 mM), TBN (1.5 mM), or AN9 (300 μM) for three days before labeling with the MTG dye for live cell confocal analysis.
compound,measurement,setting,value
"CCCC(=O)[O-].[Na+] [NaBt, sodium butyrate]",cell death,[1],negligible cell death
same,NaBt concentration resulting in near maximal acetylation levels of nuclear proteins,[2],2 mM
same,increase in ATP levels,[3],1.6 fold
same,mtDNA foci,[4],increased number of mtDNA foci
same,mitochondrial density in processes,"[5]; NaBt pre-treated, 60 μM chloramphenicol",retained a high mitochondrial density
same,total neurite length with NaBt pre-treatment,"[5]; NaBt three days, highest concentration of chloramphenicol, NGF",remained unaffected
same,connectivity among mitochondria,[6],rescue the connectivity among mitochondria
